The values that follow come from US20060106032A1, “Synthesis of N2 - (substituted arylmethyl) -3- (substituted phenyl) indazoles as novel anti-angiogenic agents” (YUNG SHIN PHARM. IND. CO., LTD., priority 2004, published 2006).

Data set [1] has as its system Human umbilical vein endothelial cells (HUVECs). Briefly: [3H]thymidine incorporation assay: VEGF-induced cell proliferation (DNA synthesis) of HUVECs. To be noted: VEGF 10 ng/mL. It counts as cell-based. The protocol: Human umbilical vein endothelial cells were incubated in the absence (basal and control) or presence of tested sample (YD-3, 10, 15, 17, 21, 25, 26) with 30 μM, and then vascular endothelial growth factor (VEGF) was added (except for basal) to induce DNA synthesis, which was detected using [^3H] thymidine incorporation assay.
Human umbilical vein endothelial cells were incubated in the absence (basal and control) or presence of tested sample (YD-3, 10, 15, 17, 21, 25, 26) with 10 μM, and then vascular endothelial growth factor (VEGF) was added (except for basal) to inducd DNA synthesis, which was detected using [^3H] thymidine incorporation assay. Means±S.E. (n=5) were presented.
Human umbilical vein endothelial cells were incubated in the absence (basal and control) or presence of tested sample (YD-3, 10, 15, 17, 21, 25, 26) with 1 μM, and then vascular endothelial growth factor (VEGF) was added (except for basal) to inducd DNA synthesis, which was detected using [^3H] thymidine incorporation assay. Means±S.E. (n=5) were presented.
(§1) Human umbilical vein endothelial cells (HUVECS) were isolated according to the protocols from Jaffe et al. and obtained from human umbilical cord veins with collagenase and cultured in 75 cm^2 plastic flasks in M199 containing 20% FBS, 15 μg/mL endothelial cell growth supplements (ECGs). Confirmation of their identity as endothelial cells was provided by detection of CD31 (PECAM-1), assessed by immunostaining. Experiments were conducted on HUVECs that had used in passage 2 to 5.
Confluent HUVECs were trypsinized, suspended in DMEM supplemented with 20% FBS, and seeded at 1.0×10^4 cells per well into 96-well plates. After 24 h, the cells were washed twice with PBS and starved with 2% FBS-M199 medium for 24 h. The cells were incubated with or without indicated reagents and growth factors (VEGF; 10 ng/mL) for 24 h and harvested. Before the harvest, cells were incubated with [^3H]thymidine (2 μCi/mL) for 4 h, harvested with Filter-Mate (Packard), and incorporated radioactivity was determined.
The effect of tested compounds on VEGF-induced cell proliferation of HUVECs was assessed with the [^3H]thymidine incorporation assay, and the results were illustrated in FIG. 5-FIG. 7.

In data set [2] the test system is VEGF-induced angiogenesis in Matrigel plug. Briefly: In vivo Matrigel plug assay (neovascular formation, hemoglobin concentration). The note with it: nude mice, FIG. 9; for anti-angiogenic activity in Matrigel plug assay (hemoglobin concentration): 150 ng/ml VEGF plug, oral, seven-day administration. How it is done:
Nude mice were subcutaneously injected with a Matrigel plug containing 150 ng/ml vascular endothelial growth factor (VEGF). Vehicle or tested sample (YD-3, 10, 15, 17, 21, 25, 26) was orally administered into the mice. After a seven-day administration, the animals were euthanized and the plugs were cut of the mice for the measurement of angiogenic effect using the hemoglobin concentration as the parameter by means of a hemoglobin detection kit (Sigma). Means±S.E. (n=3) were presented. Nude mice (6 weeks of age) were given s.c. injections of 500 μL of Matrigel (Becton Dickinson, Bedford, Mass.) at 4° C. with or without YC-1 and growth factor (150 ng/mL VEGF). After injection, the Matrigel rapidly formed a plug. After 7 days, the skin of the mouse was easily pulled back to expose the Matrigel plug, which remained intact. After quantitative differences were noted and photographed, hemoglobin was measured, as an indication of blood vessel formation, using the Drabkin method (Drabkin reagent kit 525, Sigma, St. Louis, Mo.). The concentration of hemoglobin was calculated from a known amount of hemoglobin assayed in parallel. The in vivo Matrigel plug assay was used in this study to determine quantitative the anti-angiogenic effect of tested compounds.

The test system of a further data set is angiogenesis. Briefly: Evaluation for anti-angiogenic activities (overall summary). To be noted: summary statement. How it is done: 3-(4-Methylphenyl)-1H-indazole (10) and N^2-(substituted benzyl)-3-(4-methylphenyl)indazoles (15, 17, 21, 25, 26) were evaluated for anti-angiogenic activities.
In this study, 3-(4-methylphenyl)-1H-indazole (10) and five of the above mentioned N^2-regioisomers, namely, compounds 15, 17, 21, 25 and 26 were selected for evaluating their effects on VEGF-induced cell proliferation, on VEGF-induced tube formation of HUVECs in vitro, and on neovascular formation in vivo.

For data set [3], the system named is Human umbilical vein endothelial cells (HUVECs). Nature of the data set: VEGF-induced tube formation of HUVECs on Matrigel. It counts as cell-based. The note with it: FIG. 8; for blockage of VEGF-induced tube formation of HUVECs: Matrigel-coated chamberslide. How it is done:
FIG. 8 show photographs of the results of in vitro assay (inhibition of tube formation). Human umbilical vein endothelial cells were cultured onto chamberslide, which was precoated with Matrigel (10 mg/ml). Cells were treated without (basal and control) or with tested sample (YD-3, 10, 15, 17, 21, 25, 26) and then vascular endothelial growth factor (VEGF) was added to induce tube formation. All photographs were taken at 100×magnification.
as §1

In general, melting point refers to the temperature of the solid-liquid transition. `Cc1ccc(-c2n[nH]c3ccccc23)cc1` [Compound 10, 3-(4-Methylphenyl)-1H-indazole]: the melting point lay within 106 to 107 °C. Moreover, the “inhibitory effect on VEGF-induced cell proliferation of HUVECs ([3H]thymidine incorporation)” value (“inhibitory effect” below) in data set [1] (10 μM, FIG. 6) is given as “significant inhibitory effect”. Besides, the “inhibitory effect” value in data set [1] (30 μM, FIG. 5) was “significant inhibitory effect”.

For the molecule `CCOC(=O)c1ccc(-c2n[nH]c3ccccc23)cc1` [Compound 11, Ethyl 4-(1H-indazol-3-yl)benzoate], the melting point lay in the range of 133 to 135 °C. Same read-out and setting: under `Cc1ccc(-c2nn(Cc3ccc(Cl)cc3)c3ccccc23)cc1` [Compound 14, 1-(4-Chlorobenzyl)-3-(4-methylphenyl)-1H-indazole] stands 79.9 to 82.3 °C. `Cc1ccc(-c2c3ccccc3nn2Cc2ccc(Cl)cc2)cc1` [Compound 15, 2-(4-Chlorobenzyl)-3-(4-methylphenyl)-2H-indazole] returned a melting point of 107.4 to 109.5 °C. Further, in data set [2], the “anti-angiogenic activity in Matrigel plug assay (hemoglobin concentration)” value is given as “significant anti-angiogenic activities” and the “anti-angiogenic potency in Matrigel plug assay compared with positive control YD-3” value is on record as “superior potency than the positive control YD-3”. Moreover, in the data set with angiogenesis, the “anti-angiogenic activity (overall)” value is recorded as “significant anti-angiogenic activity”. Moreover, in data set [3], the “inhibitory activity on tube formation compared with other tested compounds and YD-3” value was “more potent than other tested compounds and YD-3”; the “blockage of VEGF-induced tube formation of HUVECs” value (shortened to “blockage”) was “significant blockage”. For the same molecule, in data set [1] (1 μM), the “activity on VEGF-induced cell proliferation of HUVECs compared with positive control YD-3” value was “better activity than positive control YD-3”. Besides, in data set [1] (10 μM, FIG. 6), the “inhibitory effect” value is “significant inhibitory effect”. The “inhibitory effect” value in data set [1] (30 μM, FIG. 5) is on record as “significant inhibitory effect”. Regarding `Cc1ccc(-c2nn(Cc3cccc(Cl)c3)c3ccccc23)cc1` [Compound 16, 1-(3-Chlorobenzyl)-3-(4-methylphenyl)-1H-indazole], the melting point lay within 66.6 to 68 °C. Consider `Cc1ccc(-c2c3ccccc3nn2Cc2cccc(Cl)c2)cc1` [Compound 17, 2-(3-Chlorobenzyl)-3-(4-methylphenyl)-2H-indazole], for which the melting point was 98 to 100 °C. The “anti-angiogenic activity in Matrigel plug assay (hemoglobin concentration)” value in data set [2] is reported as “significant anti-angiogenic activities”. The “blockage” value in data set [3] was “significant blockage”. In data set [1] (10 μM, FIG. 6), the “inhibitory effect” value is “significant inhibitory effect”. The “inhibitory effect” value in data set [1] (30 μM, FIG. 5) is given as “significant inhibitory effect”. As to `Cc1ccc(-c2nn(Cc3ccccc3Cl)c3ccccc23)cc1` [Compound 18, 1-(2-Chlorobenzyl)-3-(4-methylphenyl)-1H-indazole], the melting point lay in the range of 77.6 to 78.8 °C. On the same count and under the same terms, under `Cc1ccc(-c2c3ccccc3nn2Cc2ccccc2Cl)cc1` [Compound 19, 2-(2-Chlorobenzyl)-3-(4-methylphenyl)-2H-indazole] stands 131.3 to 137.8 °C.

In turn, `Cc1ccc(Cn2nc(-c3ccc(C)cc3)c3ccccc32)cc1` [Compound 20, 1-(4-Methylbenzyl)-3-(4-methylphenyl)-1H-indazole] returned a melting point of 79.6 to 82.3 °C.

The molecule `Cc1ccc(-c2nn(Cc3ccccc3C)c3ccccc23)cc1` [Compound 22, 1-(2-Methylbenzyl)-3-(4-methylphenyl)-1H-indazole] yielded a melting point of 114.1 to 116.5 °C. Same read-out and setting: the value for `Cc1ccc(-c2c3ccccc3nn2Cc2ccccc2C)cc1` [Compound 23, 2-(2-Methylbenzyl)-3-(4-methylphenyl)-2H-indazole] was 125 to 128.8 °C. In turn, `Cc1ccc(-c2c3ccccc3nn2Cc2ccccc2)cc1` [Compound 26, 2-Benzyl-3-(4-methylphenyl)-2H-indazole] yielded a melting point of 110.7 to 111.3 °C. Further, in data set [2], the “anti-angiogenic activity in Matrigel plug assay (hemoglobin concentration)” value is listed as “significant anti-angiogenic activities”. In data set [3], the “blockage” value was “significant blockage”. The “inhibitory effect” value in data set [1] (10 μM, FIG. 6) was “significant inhibitory effect”. In addition, the “inhibitory effect” value in data set [1] (30 μM, FIG. 5) is reported as “significant inhibitory effect”. With `CCOC(=O)c1ccc(-c2c3ccccc3nn2Cc2ccccc2)cc1` [Compound 28, Ethyl 4-(2-benzyl-2H-indazol-3-yl)benzoate], the melting point fell in the range of 112 to 113 °C. On to `COC(=O)c1ccc(-c2nn(Cc3ccc(F)cc3)c3ccccc23)cc1` [Compound 29, Methyl 4-[1-(4-fluorobenzyl)-1H-indazol-3-yl]benzoate], for which the melting point fell in the range of 118 to 120 °C. Molecule `COC(=O)c1ccc(-c2c3ccccc3nn2Cc2ccc(F)cc2)cc1` [Compound 30, Methyl 4-[2-(4-fluorobenzyl)-2H-indazol-3-yl]benzoate] yielded a melting point of 121 to 122 °C.

Regarding `CCOC(=O)c1ccc(-c2nn(Cc3ccccc3F)c3ccccc23)cc1` [Compound 31, Ethyl 4-[1-(2-fluorobenzyl)-1H-indazol-3-yl]benzoate], the melting point was in the range of 102 to 103 °C. `CCOC(=O)c1ccc(-c2c3ccccc3nn2Cc2ccccc2F)cc1` [Compound 32, Ethyl 4-[2-(2-fluorobenzyl)-2H-indazol-3-yl]benzoate] had a melting point of 94 to 96 °C. Still for that read-out and setting: under `COC(=O)c1ccc(-c2nn(Cc3ccco3)c3ccccc23)cc1` [Compound 33, Methyl 4-[1-(2-furylmethyl)-1H-indazol-3-yl]benzoate] stands 99 to 101 °C; under `COC(=O)c1ccc(-c2c3ccccc3nn2Cc2ccco2)cc1` [Compound 34, Methyl 4-[2-(2-furylmethyl)-2H-indazol-3-yl]benzoate], 140 to 143 °C; under `O=C(O)c1ccc(-c2c3ccccc3nn2Cc2ccccc2)cc1` [Compound 35, 4-(2-Benzyl-2H-indazol-3-yl)benzoic acid], 159 to 163 °C.

In turn, `O=C(O)c1ccc(-c2c3ccccc3nn2Cc2ccc(F)cc2)cc1` [Compound 36, 4-[2-(4-Fluorobenzyl)-2H-indazol-3-yl]benzoic acid] yielded a melting point of 237 to 239 °C. The same measure, in the same setting: under `O=C(NO)c1ccc(-c2c3ccccc3nn2Cc2ccccc2)cc1` [Compound 38, 4-(2-Benzyl-2H-indazol-3-yl)-N-hydroxybenzamide] stands 201 to 203 °C; under `OCc1ccc(-c2c3ccccc3nn2Cc2ccccc2)cc1` [Compound 39, [4-(2-Benzyl-2H-indazol-3-yl)phenyl]methanol], 148 to 149 °C.

`OCc1ccc(-c2c3ccccc3nn2Cc2ccco2)cc1` [Compound 40, {4-[2-(2-Furylmethyl)-2H-indazol-3-yl]phenyl]methanol] gave a melting point of 129 to 130 °C.
